Laboratory results as given in the supplement of paper PMC10307832.

Compound: COc1cc([C@@H]2c3cc4c(cc3[C@@H](O[C@@H]3O[C@@H]5CO[C@@H](C)O[C@H]5[C@H](O)[C@H]3O)[C@H]3COC(=O)[C@H]23)OCO4)cc(OC)c1O [Etoposide] + C[C@]1(O)C[C@@H](c2nc(-c3ccc4ccc(-c5ccccc5)nc4c3)c3c(N)nccn32)C1 [Linsitinib] (partner 1 µM)
Assay: relative viability (nuclei count vs DMSO), 5 days (fraction); higher = more cells survive
Conditions: first compound 0.01 µM
Procedure, shortened: (§1)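 Lung cancer cell lines in 1536-well plates got either a single drug or a fixed anchor-drug dose together with five library-drug doses (not always all listed) in √10 steps, by pin tool, on the day after seeding. Nuclei were counted after 5 days, and relative viability is the treated-to-vehicle ratio of nuclei counts. Values are medians of duplicate plates.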

Cell Line	relative viability
NCI-H2405	0.791
SW 1573	0.884
NCI-H1395	1
201T	1.12
NCI-H1915	1.1
HCC-827	0.983
LXF-289	0.968
NCI-H2347	1.23
NCI-H650	0.856
CAL-12T	0.791
NCI-H1651	0.885
EPLC-272H	1.29
NCI-H23	0.504
NCI-H1792	0.405

Same assay, conditions: first compound 0.03162 µM

Cell Line	relative viability
NCI-H2405	0.96
SW 1573	0.76
NCI-H1395	1.33
201T	1.04
NCI-H1915	1.16
HCC-827	0.919
LXF-289	1.06
NCI-H2347	1.08
NCI-H650	0.809
CAL-12T	0.849
NCI-H1651	0.922
EPLC-272H	1.12
NCI-H23	0.645
NCI-H1792	0.331

Same assay, conditions: first compound 0.1 µM

Cell Line	relative viability
NCI-H2405	0.582
SW 1573	0.646
NCI-H1395	0.836
201T	0.899
NCI-H1915	1.06
HCC-827	0.931
LXF-289	1
NCI-H2347	0.592
NCI-H650	0.452
CAL-12T	0.619
NCI-H1651	0.864
EPLC-272H	0.693
NCI-H23	0.364
NCI-H1792	0.261

Same assay, conditions: first compound 0.3162 µM

Cell Line	relative viability
NCI-H2405	0.7
SW 1573	0.327
NCI-H1395	0.897
201T	1
NCI-H1915	0.994
HCC-827	0.659
LXF-289	0.703
NCI-H2347	0.523
NCI-H650	0.445
CAL-12T	0.597
NCI-H1651	0.331
EPLC-272H	1.14
NCI-H23	0.409
NCI-H1792	0.418

Same assay, conditions: first compound 1 µM

Cell Line	relative viability
NCI-H2405	0.377
SW 1573	0.277
NCI-H1395	0.656
201T	0.745
NCI-H1915	0.851
HCC-827	0.33
LXF-289	0.293
NCI-H2347	0.408
NCI-H650	0.187
CAL-12T	0.181
NCI-H1651	0.134
EPLC-272H	0.504
NCI-H23	0.191
NCI-H1792	0.289

Compound: COc1cc([C@@H]2c3cc4c(cc3[C@@H](O[C@@H]3O[C@@H]5CO[C@@H](C)O[C@H]5[C@H](O)[C@H]3O)[C@H]3COC(=O)[C@H]23)OCO4)cc(OC)c1O [Etoposide] + CCNC(=O)c1noc(-c2cc(C(C)C)c(O)cc2O)c1-c1ccc(CN2CCOCC2)cc1 [Luminespib] (partner 0.01 µM)
Assay: as above
Conditions: first compound 0.01 µM
Procedure, shortened: as §1

Cell Line	relative viability
NCI-H2405	0.646
SW 1573	0.131
NCI-H1395	0.713
201T	0.839
NCI-H1915	0.714
HCC-827	0.283
LXF-289	0.569
NCI-H2347	0.498
NCI-H650	0.695
CAL-12T	0.28
NCI-H1651	0.815
EPLC-272H	0.185
NCI-H23	0.23
NCI-H1792	0.317

Same assay, conditions: first compound 0.03162 µM

Cell Line	relative viability
NCI-H2405	0.65
SW 1573	0.164
NCI-H1395	0.539
201T	1.11
NCI-H1915	0.634
HCC-827	0.795
LXF-289	0.861
NCI-H2347	0.407
NCI-H650	0.895
CAL-12T	0.531
NCI-H1651	0.724
EPLC-272H	0.238
NCI-H23	0.204
NCI-H1792	0.472

Same assay, conditions: first compound 0.1 µM

Cell Line	relative viability
NCI-H2405	0.949
SW 1573	0.355
NCI-H1395	0.607
201T	0.952
NCI-H1915	0.808
HCC-827	0.204
LXF-289	0.79
NCI-H2347	0.299
NCI-H650	0.336
CAL-12T	0.212
NCI-H1651	0.681
EPLC-272H	0.207
NCI-H23	0.207
NCI-H1792	0.205

Same assay, conditions: first compound 0.3162 µM

Cell Line	relative viability
NCI-H2405	0.664
SW 1573	0.152
NCI-H1395	0.54
201T	0.754
NCI-H1915	0.617
HCC-827	0.315
LXF-289	0.367
NCI-H2347	0.237
NCI-H650	0.179
CAL-12T	0.287
NCI-H1651	0.308
EPLC-272H	0.265
NCI-H23	0.212
NCI-H1792	0.215

Same assay, conditions: first compound 1 µM

Cell Line	relative viability
NCI-H2405	0.301
SW 1573	0.0996
NCI-H1395	0.415
201T	0.539
NCI-H1915	0.394
HCC-827	0.175
LXF-289	0.129
NCI-H2347	0.285
NCI-H650	0.174
CAL-12T	0.348
NCI-H1651	0.209
EPLC-272H	0.12
NCI-H23	0.246
